Test results reported in patent US10774080B2, “Pyrimidine compound as JAK kinase inhibitor” (THERAVANCE BIOPHARMA R&D IP, LLC, priority 2017, dated 2020).

Legend:
[1] = target: T1, JAK3 (Homo sapiens, UniProt P52333); test: Biochemical JAK kinase assay (LanthaScreen), JAK3; details: converted from pIC50 by Cheng-Prusoff; ATP at Km 1.6 μM; read-out: JAK 3 (pKi) (converted)
T1 construct: GST; purchased Life Technologies
T1 sequence (P52333 1-1124): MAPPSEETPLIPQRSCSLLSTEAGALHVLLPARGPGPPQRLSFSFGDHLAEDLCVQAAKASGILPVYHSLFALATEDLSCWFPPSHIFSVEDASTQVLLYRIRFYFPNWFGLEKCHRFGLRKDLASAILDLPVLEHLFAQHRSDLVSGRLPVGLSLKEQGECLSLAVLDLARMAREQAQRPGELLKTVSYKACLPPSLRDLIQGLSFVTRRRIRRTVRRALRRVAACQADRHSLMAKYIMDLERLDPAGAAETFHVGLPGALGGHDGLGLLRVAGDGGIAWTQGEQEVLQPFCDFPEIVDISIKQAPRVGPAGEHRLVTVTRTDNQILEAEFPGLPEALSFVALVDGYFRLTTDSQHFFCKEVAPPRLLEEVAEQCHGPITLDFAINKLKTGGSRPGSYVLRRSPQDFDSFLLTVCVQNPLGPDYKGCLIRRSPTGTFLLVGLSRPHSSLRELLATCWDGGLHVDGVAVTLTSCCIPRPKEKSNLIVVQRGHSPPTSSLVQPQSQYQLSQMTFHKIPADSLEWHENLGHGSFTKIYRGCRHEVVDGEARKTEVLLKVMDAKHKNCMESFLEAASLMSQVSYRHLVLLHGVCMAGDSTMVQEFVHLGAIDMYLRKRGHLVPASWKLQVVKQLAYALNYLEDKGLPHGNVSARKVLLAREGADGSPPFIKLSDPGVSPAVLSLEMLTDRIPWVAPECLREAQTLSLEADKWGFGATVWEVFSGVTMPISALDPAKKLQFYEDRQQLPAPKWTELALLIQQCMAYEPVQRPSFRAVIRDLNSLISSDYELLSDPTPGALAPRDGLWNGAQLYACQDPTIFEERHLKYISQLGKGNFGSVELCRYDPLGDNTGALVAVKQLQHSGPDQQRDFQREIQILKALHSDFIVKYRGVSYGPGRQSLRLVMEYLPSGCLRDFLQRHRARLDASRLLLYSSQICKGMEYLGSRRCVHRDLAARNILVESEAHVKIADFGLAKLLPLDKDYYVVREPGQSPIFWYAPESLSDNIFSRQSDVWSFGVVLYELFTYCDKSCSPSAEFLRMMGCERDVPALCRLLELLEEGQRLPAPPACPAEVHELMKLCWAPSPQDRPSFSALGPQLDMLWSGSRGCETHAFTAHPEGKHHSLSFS
Experimental: Assay 1: Biochemical JAK and Tyk2 Kinase Assays A panel of four LanthaScreen JAK biochemical assays (JAK1, 2, 3 and Tyk2) were carried in a common kinase reaction buffer (50 mM HEPES, pH 7.5, 0.01% Brij-35, 10 mM MgCl2, and 1 mM EGTA). Recombinant GST-tagged JAK enzymes and a GFP-tagged STAT1 peptide substrate were obtained from Life Technologies. Serially or discretely diluted compounds were pre-incubated with each of the four JAK enzymes and the substrate in white 384-well microplates (Corning) at ambient temperature for 1 h. ATP was subsequently added to initiate the kinase reactions in 10 μL total volume, with 1% DMSO. […] The plates were allowed to incubate at ambient temperature for 1 h before being read on the EnVision reader (Perkin Elmer). Emission ratio signals (520 nm/495 nm) were recorded and utilized to calculate the percent inhibition values based on DMSO and background controls. For dose-response analysis, percent inhibition data were plotted vs. compound concentrations, and IC50 values were determined from a 4-parameter robust fit model with the Prism software (GraphPad Software). Results were expressed as pIC50 (negative logarithm of IC50) and subsequently converted to pKi (negative logarithm of dissociation constant, Ki) using the Cheng-Prusoff equation.

[2] = Assay 7: epidermal and dermal deposition in freshly excised human skin; type: in vitro ADME; details: 0.5% ointment, about 40 hours continuous exposure
Experimental: Assay 7: Ex Vivo JAK Pharmacodynamic (PD) Assay Using Human Freshly Excised Skin An ex vivo JAK pharmacodynamics (PD) assay was conducted using human isolated skin tissue. The PD assay used fresh human skin (dermatome of 750 μm thickness) that was mounted in static Franz cells with a surface area of ˜0.5 cm^2. The receiver chambers of the Franz cells were filled with warm (37° C.) cornification media and placed in an incubator at 37° C. The skin was topically dosed with 10 μL ([…]) of compound (I) or vehicle and was left undisturbed overnight (˜24 hours). The next day, with no re-application of the test compound or vehicle, the media was replaced with a Th1-skewed stimulation cocktail consisting of TNFα, IFNγ and IL-12. The skin was left undisturbed for an additional 16 hours, and then harvested and processed for RNA extraction and qPCR of biomarkers: CXCL10, CCL2. GAPDH was used as an internal standard. The compound (I) was formulated in an ointment formulation at 0.5% strength. A total of three skin donors (tested in quadruplicates/sample/treatment) were used. Treatment effect was calculated as the percent increase or decrease in stimulation compared to the vehicle group. [table]

## CCS(=O)(=O)N1[C@@H]2CCC[C@H]1C[C@H](N(C)c1nc(CO)c(F)c(Nc3cc(C)[nH]n3)n1)C2 [Compound (I), (2-(((1R,3s,5S)-9-(ethylsulfonyl)-9-azabicyclo[3.3.1]nonan-3-yl)(methyl)amino)-5-fluoro-6-((5-methyl-1H-pyrazol-3-yl)amino)pyrimidin-4-yl)methanol]
[1]
  Ki: 0.794 nM
[2]
  PK-Tissue concentration (μM, mean ± SD) Dermis: 6.1 ± 5.3 µM
  PK-Tissue concentration (μM, mean ± SD) Epidermis: 116.5 ± 91.9 µM
